# Laboratory results: patent publication US20230265116A1, “DEGRADATION OF (EGFR) BY CONJUGATION OF EGFR INHIBITORS WITH E3 LIGASE LIGAND AND METHODS OF USE” (BEIGENE, LTD., priority 2020, published 2023)
# Where a name gives a salt, the structure may show the parent alone.
# Experiments:
# [1] = molecular target: T1, EGFR L858R/T790M (H1975-clone #36, homozygous) (Homo sapiens, UniProt P00533, L858R/T790M); test: EGFR degradation HTRF assay, H1975-clone #36 cells; type: cell-based; conditions: H1975 #36, 16h treatment; for Dmax: NCI-H1975, maximum percentage of degradation
# T1 construct: designed to specifically target WT EGFR but preserve the L858R/T790M copy; host or cells: H1975-clone #36
# Description: H1975-clone #36(L858R/T790M). H1975 cell heterozygously (from ATCC) contains alleles of WT and L858R/T790M EGFR. H1975-clone #36(L858R/T790M) was generated by gene knockout, in which the EGFR targeting sgRNA was designed to specifically target WT EGFR but preserve the L858R/T790M copy. Followed by the gene knockout, the edited H1975 cells were seeded in 96 well plates at the concentration of 1 cell/well, cultured for about 2 weeks to allow single clones formation. The formed clones were screened by DNA sequencing for the desired edition. H1975-clone #36 was confirmed as a homozygous L858R/T790M EGFR clone.
# (§1) BaF3 WT(wild type), BaF3-LTC(L858R/T790M/C797S) and BaF3-DTC(Del19/T790M/C797S) cells are treated with compounds diluted in 0.2% DMSO cell culture medium and incubate for 16h, 37° C., 5% CO2, H1975-#36, H1975-#28, H1975-#23 and HCC827 cells are treated with compounds diluted in 0.2% DMSO cell culture medium on day 2, incubate for 16h, 37° C., 5% CO2.the final concentriation of compounds in all assay is start with 10 uM, 5-fold dilution, total 8 doses were included.
# (§2) After 16h treatment, add HTRF lysis buffer to each well; seal the plate and incubate 1 hour at room temperature on a plate shaker; Once the cells are lysed, 16 μL of cell lysate are transferred to a PE 384-well HTRF detection plate; 4 μL of pre-mixed HTRF antibodies are added to each well; Cover the plate with a plate sealer, spin 1000 rpm for 1 min, Incubate overnight at room temperature; Read on BMG PheraStar with HTRF protocol (337 nm-665 nm-620 nm).
# (§3) The inhibition (degradation) percentage of the compound was calculated by the following equation: Inhibition percentage of Compound=100-100×(Signal-low control)/(High control-low control), wherein signal=each test compound group
# (§4) High control=Cell group with added DMSO and without compound, indicating microplate readings without EGFR degradation;
# (§5) Dmax is the maximum percentage of inhibition (degradation).
# (§6) The IC50 (DC50) value of a compound can be obtained by fitting the following equation
# (§7) Y=Bottom+(TOP−Bottom)/(1+((IC50/X)^hillslope))
# (§8) Wherein, X and Y are known values, and IC50, Hillslope, Top and Bottom are the parameters obtained by fitting with software. Y is the inhibition percentage (calculated from the equation), X is the concentration of the compound; IC50 is the concentration of the compound when the 50% inhibition is reached. The smaller the IC50 value is, the stronger the inhibitory ability of the compound is. Vice versa, the higher the IC50 value is, the weaker the inhibitory ability of the compound is; Hillslope represents the slope of the fitted curve, generally around 1*; Bottom represents the minimum value of the curve obtained by data fitting, which is generally 0%±20%; Top represents the maximum value of the curve obtained by data fitting, which is generally 100%±20%. The experimental data were fitted by calculating and analyzing with Dotmatics data analysis software.
# EGFR (HCC827 cells) = molecular target: T2, EGFR (HCC827 cells) (Homo sapiens, UniProt P00533, DEL746-750); test: EGFR degradation HTRF assay, HCC827 cells; type: cell-based; conditions: HCC827, 16h treatment; for Dmax: maximum percentage of degradation
# T2 construct: endogenous in cells; host or cells: HCC827
# Description: as §1, §2, §3, §4, §5, §6, §7, §8
# T1 sequence (P00533 25-1210 T790M/L858R): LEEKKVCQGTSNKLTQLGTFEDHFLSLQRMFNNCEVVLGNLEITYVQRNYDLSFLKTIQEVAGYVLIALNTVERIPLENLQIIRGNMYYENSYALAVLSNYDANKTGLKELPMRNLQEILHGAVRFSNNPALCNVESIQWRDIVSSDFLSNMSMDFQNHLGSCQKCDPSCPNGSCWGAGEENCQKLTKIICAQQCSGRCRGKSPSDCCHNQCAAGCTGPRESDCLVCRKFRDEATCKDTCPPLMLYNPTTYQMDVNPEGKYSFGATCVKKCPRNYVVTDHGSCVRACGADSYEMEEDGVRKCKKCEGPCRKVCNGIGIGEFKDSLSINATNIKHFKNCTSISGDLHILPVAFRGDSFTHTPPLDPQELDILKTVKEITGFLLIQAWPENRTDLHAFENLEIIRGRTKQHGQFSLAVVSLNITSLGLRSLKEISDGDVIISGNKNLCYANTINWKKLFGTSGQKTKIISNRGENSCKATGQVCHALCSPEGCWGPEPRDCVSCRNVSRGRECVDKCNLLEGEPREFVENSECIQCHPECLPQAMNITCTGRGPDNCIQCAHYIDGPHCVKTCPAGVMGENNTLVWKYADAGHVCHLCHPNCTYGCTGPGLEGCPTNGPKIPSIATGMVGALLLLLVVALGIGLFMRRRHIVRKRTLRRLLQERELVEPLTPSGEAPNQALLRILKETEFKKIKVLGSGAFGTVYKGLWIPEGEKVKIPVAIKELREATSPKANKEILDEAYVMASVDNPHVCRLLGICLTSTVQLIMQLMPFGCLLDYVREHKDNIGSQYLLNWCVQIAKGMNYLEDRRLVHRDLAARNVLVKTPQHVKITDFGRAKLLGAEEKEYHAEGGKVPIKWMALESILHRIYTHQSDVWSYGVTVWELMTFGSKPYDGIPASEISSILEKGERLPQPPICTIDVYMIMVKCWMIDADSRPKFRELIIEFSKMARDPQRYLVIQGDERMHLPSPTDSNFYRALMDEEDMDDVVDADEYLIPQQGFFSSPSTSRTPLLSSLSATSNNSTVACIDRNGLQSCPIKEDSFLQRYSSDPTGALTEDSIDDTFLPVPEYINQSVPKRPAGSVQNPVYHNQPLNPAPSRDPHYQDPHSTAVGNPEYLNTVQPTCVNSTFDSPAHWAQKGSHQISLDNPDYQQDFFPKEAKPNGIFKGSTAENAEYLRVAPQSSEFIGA
# T2 sequence (P00533 with tags, fused parts or gaps DEL746-750): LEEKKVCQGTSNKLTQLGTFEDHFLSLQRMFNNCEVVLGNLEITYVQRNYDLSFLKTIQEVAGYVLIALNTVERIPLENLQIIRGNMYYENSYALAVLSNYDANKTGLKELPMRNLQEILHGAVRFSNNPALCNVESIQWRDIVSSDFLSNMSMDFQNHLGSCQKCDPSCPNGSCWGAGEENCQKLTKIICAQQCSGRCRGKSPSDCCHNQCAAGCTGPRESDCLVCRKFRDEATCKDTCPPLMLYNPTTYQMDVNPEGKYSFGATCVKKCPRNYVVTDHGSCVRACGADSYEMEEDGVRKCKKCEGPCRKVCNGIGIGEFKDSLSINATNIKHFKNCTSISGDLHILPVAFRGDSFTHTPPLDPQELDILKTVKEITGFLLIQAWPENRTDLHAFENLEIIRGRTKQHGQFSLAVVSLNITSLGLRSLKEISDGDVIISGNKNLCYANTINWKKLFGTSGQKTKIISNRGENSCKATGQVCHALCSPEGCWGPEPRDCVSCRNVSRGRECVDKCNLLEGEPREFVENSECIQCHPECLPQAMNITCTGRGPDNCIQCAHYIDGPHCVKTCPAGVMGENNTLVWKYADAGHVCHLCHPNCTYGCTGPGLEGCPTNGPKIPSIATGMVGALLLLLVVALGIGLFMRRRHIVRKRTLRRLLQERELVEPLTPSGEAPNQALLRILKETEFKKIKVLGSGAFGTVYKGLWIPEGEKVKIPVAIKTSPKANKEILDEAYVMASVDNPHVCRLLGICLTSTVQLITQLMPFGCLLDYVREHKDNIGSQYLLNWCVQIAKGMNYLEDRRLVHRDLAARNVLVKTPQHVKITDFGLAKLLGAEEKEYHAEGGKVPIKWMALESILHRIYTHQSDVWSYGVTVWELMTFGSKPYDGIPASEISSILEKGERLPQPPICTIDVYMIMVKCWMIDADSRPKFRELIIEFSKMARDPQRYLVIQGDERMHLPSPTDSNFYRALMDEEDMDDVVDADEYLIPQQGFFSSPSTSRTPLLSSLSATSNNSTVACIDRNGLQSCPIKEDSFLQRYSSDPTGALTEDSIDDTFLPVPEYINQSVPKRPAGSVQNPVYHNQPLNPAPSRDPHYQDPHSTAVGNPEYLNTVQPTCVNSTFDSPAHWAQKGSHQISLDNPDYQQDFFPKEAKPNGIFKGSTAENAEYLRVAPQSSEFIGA
DC50 [1] [µM],Dmax [1] [%],DC50 (EGFR (HCC827 cells)) [µM],Dmax (EGFR (HCC827 cells)) [%],SMILES
> 10,41.7,0.00626,67.5,"CCc1cc(Nc2ncc(Br)c(Nc3ccc4nccnc4c3P(C)(C)=O)n2)c(OC)cc1N1CCC(N2CCN(CC3CCN(c4ccc(C5CCC(=O)NC5=O)cc4)CC3)CC2)CC1 (stereo not shown) [Example 22, 3-(4-(4-((4-(1-(4-((5-bromo-4-((5-(dimethylphosphoryl)quinoxalin-6-yl)amino)pyrimidin-2-yl)amino)-2-ethyl-5-methoxyphenyl)piperidin-4-yl)piperazin-1-yl)methyl)piperidin-1-yl)phenyl)piperidine-2,6-dione]"
0.00572,65.5,0.00659,74.7,"CCc1cc(Nc2ncc(Br)c(Nc3ccc4nccnc4c3P(C)(C)=O)n2)c(OC)cc1N1CCC(N2CCN(C(=O)CC3CCN(c4ccc(C5CCC(=O)NC5=O)cc4)CC3)CC2)CC1 (stereo not shown) [Example 24, 3-(4-(4-(2-(4-(1-(4-((5-bromo-4-((5-(dimethylphosphoryl)quinoxalin-6-yl)amino)pyrimidin-2-yl)amino)-2-ethyl-5-methoxyphenyl)piperidin-4-yl)piperazin-1-yl)-2-oxoethyl)piperidin-1-yl)phenyl)piperidine-2,6-dione]"

# The remaining lines, values behind:
SMILES,DC50 [1] [µM],Dmax [1] [%],DC50 (EGFR (HCC827 cells)) [µM],Dmax (EGFR (HCC827 cells)) [%]
"CCc1cc(Nc2ncc(Br)c(Nc3ccc4nccnc4c3P(C)(C)=O)n2)c(OC)cc1N1CCC(N2CCN(CCc3ccc(C4CCC(=O)NC4=O)c(OC)c3)CC2)CC1 (stereo not shown) [Example 2, 3-(4-(2-(4-(1-(4-((5-bromo-4-((5-(dimethylphosphoryl)quinoxalin-6-yl)amino)pyrimidin-2-yl)amino)-2-ethyl-5-methoxyphenyl)piperidin-4-yl)piperazin-1-yl)ethyl)-2-methoxyphenyl)piperidine-2,6-dione]",3.72,53.6,0.018,78.5
"CCc1cc(Nc2ncc(Br)c(Nc3ccc4nccnc4c3P(C)(C)=O)n2)c(OC)cc1N1CCC(N2CCN(CCc3ccc(C4CCC(=O)NC4=O)c(C)c3)CC2)CC1 (stereo not shown) [Example 3, 3-(4-(2-(4-(1-(4-((5-bromo-4-((5-(dimethylphosphoryl)quinoxalin-6-yl)amino)pyrimidin-2-yl)amino)-2-ethyl-5-methoxyphenyl)piperidin-4-yl)piperazin-1-yl)ethyl)-2-methylphenyl)piperidine-2,6-dione]",> 10,45.1,0.0143,72.3
"CCc1cc(Nc2ncc(Br)c(Nc3ccc4nccnc4c3P(C)(C)=O)n2)c(OC)cc1N1CCC(N2CCN(CCc3ccc(C4CCC(=O)NC4=O)c(Cl)c3)CC2)CC1 (stereo not shown) [Example 4, 3-(4-(2-(4-(1-(4-((5-bromo-4-((5-(dimethylphosphoryl)quinoxalin-6-yl)amino)pyrimidin-2-yl)amino)-2-ethyl-5-methoxyphenyl)piperidin-4-yl)piperazin-1-yl)ethyl)-2-chlorophenyl)piperidine-2,6-dione]",0.00744,75.4,0.0111,83.6
"CCc1cc(Nc2ncc(Br)c(Nc3ccc4nccnc4c3P(C)(C)=O)n2)c(OC)cc1N1CCC(N2CCN(CCc3ccc(C4CCC(=O)NC4=O)cn3)CC2)CC1 (stereo not shown) [Example 13, 3-(6-(2-(4-(1-(4-((5-bromo-4-((5-(dimethylphosphoryl)quinoxalin-6-yl)amino)pyrimidin-2-yl)amino)-2-ethyl-5-methoxyphenyl)piperidin-4-yl)piperazin-1-yl)ethyl)pyridin-3-yl)piperidine-2,6-dione]",> 10,42.8,0.00948,78.9
"CCc1cc(Nc2ncc(Br)c(Nc3ccc4nccnc4c3P(C)(C)=O)n2)c(OC)cc1N1CCC(N2CCN(CCOc3ccc(C4CCC(=O)NC4=O)cc3)CC2)CC1 (stereo not shown) [Example 17, 3-(4-(2-(4-(1-(4-((5-bromo-4-((5-(dimethylphosphoryl)quinoxalin-6-yl)amino)pyrimidin-2-yl)amino)-2-ethyl-5-methoxyphenyl)piperidin-4-yl)piperazin-1-yl)ethoxy)phenyl)piperidine-2,6-dione formate]",> 10,6.77,0.0254,73.3
